Source: paper PMC7767381, “Exploring the Anti-Cancer Mechanism of Novel 3,4′-Substituted Diaryl Guanidinium Derivatives” (Pharmaceuticals, 2020)

Assays:
Format in all cases: cell-based
MCF-7 cells = assay: alamarBlue cell viability assay, MCF-7; details: Homo sapiens, MCF7, 72 h, read-out: MCF-7 IC50 ± SEM
Text: (§1) Cell viability and proliferation assays were used to evaluate the in vitro cytotoxicity of all synthesised compounds in a variety of different cancer cell lines using the alamarBlue® viability assay and the results are presented in Table 1 and Table 2. The sensitivity of cancer cells to drugs can often be compromised by PIK3CA, Ras and BRAF mutations. To determine whether such mutations are critical to the efficacy of our new compounds we tested them in a range of cancerous cell lines expressing different mutations. Firstly, we used the HL-60 (human promyelocytic leukaemia, NRas mutated) cell line for general cytotoxicity screening of all compounds. […] Lastly, toxicity against MCF-10A, which is a non-tumorigenic epithelial cell line, was also assessed for one of the most promising compounds (4). The graphs representing the viability results with the HL-60, MCF-7, HeLa, HCT-116, and HKH-2 cancer cell lines for compound 1 and derivatives 2, 3, and 4 are shown in Figures S7–S10 (ESI).
(§2) Cells were counted and seeded in 96-well plates at a density of 2 × 10^5 cells/mL for HL-60, 2.5 × 10^4 cells/mL for MCF-7, MCF10A and HeLa, 1 × 10^5 cells/mL for HCT116 and HKH-2, all of them in their respective media. The 96-well plates were then treated with a 1:100 dilution of stock concentrations of drugs or EtOH (1% v/v)/DMSO (0.1% v/v) as vehicle control in triplicate. Three blank wells containing 200 µL RPMI with no cells were also set-up as blanks. After a 72 h incubation, 20 µL of alamarBlue was added to each well. The plates were incubated in darkness at 37 °C for 4–5 h using a Molecular Devices microplate reader, the fluorescence (F) was then read at an excitation wavelength of 544 nm and an emission wavelength of 590 nm. Cell viability was then determined by subtracting the mean blank fluorescence (Fb) from the treated sample fluorescence (Fs) and expressing this as a percentage of the fluorescence of the blanked vehicle control (Fc). […] The results were then plotted as a nonlinear regression, sigmoidal dose-response curves on Prism, from which the IC50 value for each drug was determined.
(§3) The MCF-7 (human breast tumour) cell line was obtained from Prof. Mary Meegan, School of Pharmacy, TCD. It was maintained in Roswell Park Memorial Institute (RPMI) 1640 medium with stable glutamate (GlutaMax I) supplemented with 10% (v/v) fetal bovine serum (FBS), 1% (v/v) penicillin/ streptomycin (pen-strep) and 2 mM L-glutamine.
(§4) The HeLa (human epitheloid cervix carcinoma) cell line was obtained from Prof. Thorfinnur Gunnlaugsson, School of Chemistry TCD. It was maintainedin Dulbecco's Modified Eagle's Medium (DMEM) supplemented with 10% (v/v) fetal bovine serum (FBS) and 1%(v/v) penicillin/ streptomycin (pen-strep).
(§5) The HCT116and HKH-2 (human colon cancer cells) cell lines were obtained from Prof. James Murray, School of Biochemistry and Immunology TCD. They were maintainedin Dulbecco's Modified Eagle's Medium (DMEM) supplemented with 10% (v/v) fetal bovine serum (FBS), 1% (v/v) penicillin/ streptomycin (pen-strep), 1% (v/v) sodium pyruvate (NaPyr), 1% (v/v) L-glutamine (L-Glu) and, only for HKH-2, 0.6 mg/mL geneticine (G418).
MCF-10A (human breast epithelial) cell line was obtained from Prof. Mary Meegan, School of Pharmacy, TCD. It was cultured in Dulbecco’s Modified Eagle Medium/Nutrient Mixture F-12 (DMEM/F12; Gibco) supplemented with 5% horse serum (Invitrogen), 20 ng/mL epidermal growth factor (Merck Millipore), 0.5 μg/mL hydrocortisone (Sigma), 100 ng/mL cholera toxin (Sigma), 10 μg/mL insulin (Sigma), and penicillin/streptomycin (1% v/v) (Gibco).
4.4. AlamarBlue ® Cell Viability Assay
Cells were counted and seeded in 96 well plates at a density of 2 × 10^5 cells/mL for HL-60, 2.5× 10^4 cells/mL for MCF-7, MCF10A and HeLa, 1 × 10^5 cells/mL for HCT116 and HKH-2, all of them in their respective media. The 96 well plates were then treated with a 1:100 dilution of stock concentrations of drugs or EtOH (1% v/v)/DMSO (0.1% v/v) as vehicle control in triplicate. […]

HCT116 cells = assay: alamarBlue cell viability assay, HCT116; details: Homo sapiens, HCT-116, 72 h, KRas mutant, read-out: HCT116 IC50 ± SEM
Text: as §1, §2, §3, §4, §5
(§6) MCF-10A (human breast epithelial) cell line was obtained from Prof. Mary Meegan, School of Pharmacy, TCD. […]
(§7) Cells were counted and seeded in 96 well plates at a density of 2 × 10^5 cells/mL for HL-60, 2.5× 10^4 cells/mL for MCF-7, MCF10A and HeLa, 1 × 10^5 cells/mL for HCT116 and HKH-2, all of them in their respective media. […]

HKH-2 cells = assay: alamarBlue cell viability assay, HKH-2; details: Homo sapiens, 72 h, mutated KRas disrupted, read-out: HKH-2 IC50 ± SEM
Text: as §1, §2, §3, §4, §5, §6, §7

Q: With `Cl.Cl.N=C(N)Nc1ccc(Oc2cccc(NC(=N)Nc3ccc(Cl)c(C(F)(F)F)c3)c2)cn1` [Compound 2, 1-(4-Chloro-3-(trifluoromethyl)phenyl)-3-(3-((6-guanidinopyridin-3-yl)oxy)phenyl) guanidine dihydrochloride] as the molecule, how does the IC50 (MCF-7 cells) read?
A: Its IC50 is 4.91 ± 1.04 µM.

Q: And the IC50 (HCT116 cells)?
A: The IC50 was 7.29 ± 0.53 µM.

Q: What about the IC50 (HKH-2 cells) of the same molecule?
A: The IC50 was 8.09 ± 0.78 µM.

Q: What does the source list for `Cl.N=C(N)Nc1ccc(Oc2cccc(Nc3ccc(Cl)c(C(F)(F)F)c3)c2)cc1` [Compound 3, 1-(4-(3-((4-Chloro-3-(trifluoromethyl)phenyl)amino)phenoxy)phenyl)guanidine hydrochloride]?
A: IC50 (MCF-7 cells): 2.02 ± 0.27 µM; IC50 (HCT116 cells): 15.9 ± 2.73 µM; IC50 (HKH-2 cells): 10.3 ± 0.74 µM

Q: How did the IC50 (MCF-7 cells) turn out when `Cl.N=C(N)Nc1ccc(Oc2cccc(Nc3ccc(Cl)c(C(F)(F)F)c3)c2)cn1` [Compound 4, 1-(5-(3-((4-Chloro-3-(trifluoromethyl)phenyl)amino)phenoxy)pyridin-2-yl)guanidine hydrochloride] was run?
A: The IC50 was 3.73 ± 0.35 µM.

Q: And the IC50 (HCT116 cells)?
A: Its IC50 is 4.59 ± 0.4 µM.

Q: And the IC50 (HKH-2 cells)?
A: The IC50 was 2.88 ± 0.15 µM.
